Data reported in patent US20150196578A1, “COMBINATION THERAPY TREATMENT FOR VIRAL INFECTIONS” (priority 2009, published 2015).
“And” between values parts separate entries of the source, which are not always exact repeats. Equal values may be shown once. Read-outs that look alike come from different tables or passages of the source.

Test system: Influenza A/Duck/MN/1525/81 (H5N1) virus
Set-up: species or system BALB/c mice
Conditions: mouse, in vivo

| Structure (SMILES) | mice survived to day 21 | survival rate [%] | mean day of death (MDD) (sodium salt) | mean day of death (MDD) |
| --- | --- | --- | --- | --- |
| CC#CCC(C)[C@H](O)/C=C/[C@@H]1[C@H]2c3cccc(CCCC(=O)[O-])c3O[C@H]2C[C@H]1O.[Na+] (mixture of isomers) [beraprost, (+)-[1R,2R,3aS,8bS]-2,3,3a,8b-tetrahydro-2-hydroxyl-1-[(E)-(3S,4RS)-3-hydroxyl-4-methyl-1-octen-6-ynyl)-1H-cyclopenta[b]benzofuran-5-butanoic acid, sodium salt] | 6 of 10 | 50 | 9.0 ± 3.9 days and 8.0 ± 2.0 days |  |
| CCOC(=O)C1=C[C@@H](OC(CC)CC)[C@H](NC(C)=O)[C@@H](N)C1 [oseltamivir] | 8 out of 10 | 70 |  | 9.0 ± 0.0 days and 11.4 ± 1.8 days |
